Assay results taken from patent US20250092058A1 (priority 2018, published 2025).

Tests used:
[1] = Stability of FL118 formulated suspension; conditions: no observable change in antitumor efficacy vs freshly prepared
PANC1, Mia2, BxPC-3 = test: MTT viability of pancreatic cancer cells; format: cell-based, human; conditions: 72 h, nM level
Protocol: MTT assays. […] Each experiment was performed at least in triplicate.
Next, we determined whether FL118-mediated inhibition of antiapoptotic proteins and induction of pro-apoptotic proteins shown in FIG. 1 would be accompanied by induction of apoptosis and cell killing.

ERCC6, γ-H2AX = test: Western blots of DNA damage/repair proteins in PANC1; format: cell-based, human
Protocol: Western blotting/Immunoblotting. […] Fifty μg total protein from each sample were heated at 95° C. for 5 minutes after mixing with equal volume of 2×SDS loading buffer. Samples were separated on 12-15% SDS-polyacrylamide gel electrophoresis (SDS-PAGE) gels and electrotransferred to Pure Nitrocellulose Membranes (Bio-Rad, Hercules, CA). The membrane was then blocked in 5% skim milk in TBS-T buffer (20 mM Tris/HCl pH 7.5, 0.137 M NaCl, and 0.1% Tween 20) at room temperature for 2-3 hours. Next, the membrane was incubated with different primary antibodies in TBS-T containing 5% BSA overnight at 4° C. in the range of dilutions from 1:500 to 1:2000. After washing with TBS-T, the membrane was incubated in TBS-T buffer containing 5% skim milk and corresponding secondary antibody (1:5000) for 45-60 minutes at room temperature with shaking. Protein of interest was detected using Western Lightning Plus—ECL (Perkin Elmer, Waltham, MA) and visualized by various times (3-120 seconds) of exposure. Actin was detected as the internal control to normalize total protein loading for each sample.

[2] = Oral PK in SW620/HT29 tumor-bearing SCID mice; conditions: 1.5 mg/kg oral, HPβCD aqueous suspension
Protocol: Tumor tissues and blood samples were collected at a series of time points of 30 minutes, 1 hour, 4 hours, 12 hours and 24 hours. Each tumor tissue was collected in a tube and immediately frozen with liquid nitrogen; each blood sample was collected in a Li-Heparin LH/1.3 tube ([sequence]), and plasma was recovered by centrifugation (1500 rpm×2 minutes). The collected plasma from each blood sample was transferred into a new tube and immediately frozen in liquid nitrogen. Liquid nitrogen-frozen specimens were then transferred to an −80° C. freezer for analysis.
Drug in plasma is extracted with acidified methanol. An 800 μL aliquot of ice-cold acidified methanol is added to 200 μL plasma and vortexed for 15 sec. […] An 800 μL aliquot of ice-cold acidified methanol is added to 200 μL homogenized tissue and then vortexed for 1 min. The samples are then centrifuged at 13,000 rpm for 5 min. and the supernatant is transferred to a clean 13×100 mm glass tube. Samples are dried under vacuum and stored at −20° C. until analysis. […] Analysis is carried out using an Acquity UPLC system with Fluorescence detection interfaced with Empower software. […] The fluorescence detector is set at the following Excitation (Ex) and Emissions (Em) wavelengths: Ex 370 nm Em 510 nm. […] QC samples are analyzed with each curve.

A549 = format: cell-based, human; conditions: Table 13; MTT; A549 lung cancer
PANC1-GFPcODC cells = test: Trypan blue exclusion, PANC1-GFPcODC cells; format: cell-based, human; conditions: 4-day treatment; 20 μM cisplatin, 10 nM FL118, or both
Text: Generation of A2780-GFPcODC, A2780CP-GFPcODC and PANC1GFPcODC cells and fluorescence microscopy to detect stem-like and drug resistant green cells. The retroviral expression vector pQCXIN-ZsGreen-cODC (ornithine decarboxylase), containing a green fluorescence marker, was kindly provided by Dr. Frank Pajonk (Vlashi E, et al., In vivo imaging, tracking, and targeting of cancer stem cells. J Natl Cancer Inst. 2009; 101: 350-9). The retroviral particles collected from packaging cells that transfected with the above vector were infected into A2780, A2780CP and PANC1 cells, respectively. The transfected cell pool was used for experiments. […] Cell images were acquired digitally using the Olympus IX73 Inverted Score s (Olympus). Percentages of living cells were obtained from the average of the total cells counted from 10 microscopic fields.
Next, we applied the same system to generate pancreatic cancer PANC1-GFPcODC cells.

PANC1 cells = test: Matrigel CSC sphere formation; format: cell-based, human; conditions: 1, 10 and 100 nM, 20 days
Protocol: Matrigel stem cell cultural assay. […] Spheres were maintained in Improved MEM containing 20 ng/ml epidermal growth factor, 10 ng/ml basic fibroblast growth factor, […] insulin and 0.4% Bovine Serum Albumin. PANC1cells were plated at a density of 1000 cells/well in 24-well ultralow attachment plates (Sigma-Aldrich). Briefly, 1000 PANC1 cells were suspended in […] medium and mixed thoroughly with […] BD Matrigel™ (BD Bioscience, San Jose, CA, USA). […] Upon solidification, FL118 treatment was administered. Spheres in each well were set in the plate to grow for 20 days and then quantitated visually under a microscope at the magnification of 10×.
To further confirm these findings, we alternatively used the typical matrigel-based CSC sphere formation assay which is know to more closely mimic in vivo situations. In this assay only drug resistant stem-like cancer cells are able to form spheres. […] We performed colony formation of CD44 stem cell marker-positive cells using the stem-cell culture condition. […] Thus, the GFPcODC-positive cell model may be an extremely drug resistant cell model or a less actual cell mimic system after transfection of the GFPcODC-expressing vector and selection process for obtaining GFPcODC-expressing cells, which may not fully mimic the CD44 stem cell marker-positive drug resistant cells. […]

PDX10978 = test: Pancreatic cancer PDX10978 in SCID mice; format: in vivo
Protocol: (§1) Human pancreatic cancer patient-derived xenograft (PDX) tumor mouse model and treatment. Experiments followed the IACUC-approved mouse protocol. Briefly, human PDAC PDX tumors maintained on SCID mice were isolated, and a piece of non-necrotic tumor tissues (30-40 mg) were subcutaneously transplanted into the flank area of female SCID mice. […] In this study, we used the timesaving intraperitoneal (ip) route for drug administration. […] The formulation process was described in detail in our previous patent (PCT/US2011/058558). […] Tumor length (L) and width (W) were measured using digital vernier calipers 1-3 times per week until the end of experimental studies. The tumor volume (v) was calculated using the formula: v=0.5 (L×W^2). Then the tumor size was divided by the day 0 tumor size as percentage tumor size versus day 0. The mean tumor volume ± standard deviation (SD) at each time point was derived from 5 mice in each group. The tumor curves were made using Sigma Plot software.
(§2) It has been recently documented that pancreatic cancer PDXs retain active paracrine/Hedgehog signaling, and desmoplasia is active in PDX tumor mouse models.

HCT116 = format: cell-based, human; conditions: Table 13; MTT; HCT116 colorectal cancer
PDX14244 = test: Pancreatic cancer PDX14244 in SCID mice; format: in vivo; conditions: 5 mg/kg ip qw×4
Protocol: as §1, §2

PDX17624 = test: Pancreatic cancer PDX17624 in SCID mice; format: in vivo; conditions: 5 mg/kg ip qw×4
Protocol: as §1, §2

[3] = BALB/cj mice, FL118 MTD 10 mg/kg oral qw×4
[4] = BALB/cj mouse serum, FL118 MTD 10 mg/kg oral qw×4

SMILES: CC[C@@]1(O)C(=O)OCc2c1cc1n(c2=O)Cc2cc3cc4c(cc3nc2-1)OCO4 [FL118, 10,11-methylenedioxy-camptothecin]
- stability of formulated suspension for oral administration [1]: more than 12 months
- pancreatic cancer cell viability (PANC1, Mia2, BxPC-3): effectively inhibited pancreatic cancer cell viability
- expression of ERCC6 and γ-H2AX (ERCC6, γ-H2AX): strongly decreased the expression of ERCC6 and induced γ-H2AX
- concentration in tumor versus serum [2]: many folds higher than those in serum
- IC50 (A549): 81.8 ± 14 nM
- cell death (PANC1-GFPcODC cells): ~18%
- sphere formation (PANC1 cells): high efficacy in inhibiting sphere formation
- antitumor efficacy (PDX10978; 5 mg/kg ip qw×4): only able to delay PDX10978 tumor growth
- antitumor efficacy, single agent (PDX10978; FL118 0.75 mg/kg or gemcitabine 60 mg/kg ip qw×4): only delayed tumor growth
- IC50 (HCT116): 66.5 ± 11.2 nM
- antitumor efficacy (PDX14244): able to eliminate these PDX tumors after one cycle of treatment
- tolerability (10 mg/kg oral qw×4): well tolerated
- BASO [3]: 0 K/μL
- EOS [3]: 0.01-0.1 K/μL
- HCT [3]: 26.1-30.9%
- HGB [3]: 8.9 to 10.8 g/dL
- LYM [3]: 0.06-0.17 K/μL
- MCH [3]: 14.8 to 15.3 pg
- MCHC [3]: 33.7 to 36 g/dL
- MCV [3]: 41.9 to 43.9 fL
- MONO [3]: 0.03-0.12 K/μL
- MPV [3]: 8.1 to 8.6 fL
- NEUT [3]: 0.03-0.5 K/μL
- PDW [3]: 13.8 to 14.4 fL
- PLT [3]: 487-1004 K/μL
- RBC [3]: 6.01-7.04 M/μL
- RDW-SD [3]: 23 to 24.8 fL
- RET [3]: 0.67-4.49 K/μL
- WBC [3]: 0.33-0.6 K/μL
- ALB [4]: 1.7 to 2.2 g/dL
- ALP [4]: 52-105 U/L
- ALT [4]: 33-58 U/L
- BUN [4]: 16 to 19 mg/dL
- CHOL [4]: 91 to 109 mg/dL
- CREA [4]: ≤0.1 mg/dL
- Ca [4]: 8.1 to 9.4 mg/dL
- GLU [4]: 87 to 185 mg/dL
- PHOS [4]: 10 to 13.3 mg/dL
- TBIL [4]: ≤0.1 to 0.3 mg/dL
- TP [4]: 3.4 to 4.1 g/dL
- body weight loss (≥12.5 mg/kg oral qw×4): > 20%
- antitumor efficacy (PDX17624): able to eliminate these PDX tumors after one cycle of treatment
